{"source": "patent US20030070691A1", "about": "“Biocide formation via ozonation” (priority 2000, published 2003)", "key": {"[1]": {"test_system": "Enterococcus faecium (Gram positive)", "assay": "Biocidal test on dried cells on glass slides", "type": "cell-based", "method": "(§1) 0.1 milliliters of a 3×10^6 cfu/mL solution of bacteria cells harvested from a mid-log phase culture were placed on a glass microscope slide. The solution was allowed to dry for 2 hours leaving only cells on the surface. The slides were treated by immersing them in 10 mL of either: (i) sterile water; (ii) 10% ethanol in water; (iii) 10% ozonated ethanol in water; or (iv) 1% ozonated ethanol in water for either 5 or 20 seconds. Immediately after treatment the slides were removed from solution and immersed in 3-mL of a sterile saline solution and ultrasonicated for 10 minutes to dislodge the cells from the slide. The recovered cells were diluted, plated, and incubated at 37° C. overnight and colonies were counted to determine the number of survivors per slide. Initial recovery was determined using the above procedure but the treatment step was omitted."}, "[2]": {"test_system": "Klebsiella pneumoniae (Gram negative)", "assay": "Biocidal test on dried cells on glass slides", "type": "cell-based", "method": "as §1"}, "[3]": {"conditions": "at 20° C.; Handbook of Chemistry and Physics; cited from earlier work"}, "[4]": {"test_system": "Bacillus subtilis spores", "assay": "Bacillus subtilis spore carrier disinfection test", "type": "cell-based", "conditions": "30 minutes contact", "procedure": "Preparation of carriers. In each of the following examples, the disinfection solutions were evaluated using spores of Bacillus subtilis. Spores were placed onto glass carriers formed by cutting microscope slides in half lengthways. Slides were placed in a culture tube that was capped and sterilized prior to inoculation with spores. A total of 0.1 mL of a spore suspension containing 10% bovine serum albumin by weight was placed onto a small area near one end of the slide. Approximately 20 μL (microliters) of spore suspension was added at a time for 5 times, allowing each 20μL amount to dry between additions. Heat drying was performed by briefly holding the slide over a flame. The heat-fixed culture was stored in the refrigerator until needed for up to, but no longer than, 5 days.\nDisinfection of carriers. In the following examples, three vials were prepared, each containing 200 mL of the disinfectant composition to be evaluated. One spore carrier was placed into each vial. The spore carriers were held in the disinfection solutions for 30 minutes. After contacting was complete, the carriers were removed from the disinfection solutions using forceps and rinsed with sterile saline.\nSpore recovery and enumeration. After rinsing, each of the slides was placed in a sterile tube containing 2 mL of saline. […] Invert plates were incubated at 37° C. and counted after 24 hours. […]"}, "[5]": {"assay": "Dissolved ozone concentration by indigo colorimetric method", "type": "physicochemical", "conditions": "for dissolved ozone concentration: ozonated 5 minutes, 10 wt % ozone gas", "method": "Solutions containing varying amounts of acetic acid were saturated with ozone. Solutions were prepared containing 50%, 75%, 90%, 95%, and 99% by volume acetic acid in water. In separate experiments, 100 mL of the above solutions were placed in 250 mL round bottom flasks fitted with a ground glass top. The top contained two fittings that permitted gas flow in through one fitting and gas flow out through the other. A mixture of ozone and oxygen was delivered from Lynntech's Model 124 Electrochemical Ozone generator to the solution through a stainless steel gas diffusing stone. The flow rate was approximately 1,000 mL of gas per minute, and the concentration of ozone was 10% by weight. The solutions were ozonated for 5 minutes and the concentration of dissolved ozone was determined by the indigo calorimetric method. An additional solution of 100 mL of deionized water and a solution of 100 mL of glacial acetic acid were also ozonated.\nThe concentration of dissolved ozone was determined by the indigo colorimetric method. An indigo stock solution was prepared by adding 500 mL of deionized water and 1 mL of phosphoric acid to a 1 L volumetric flask. 770 mg of potassium indigo trisulfonate was added to the flask, and stirring was continued until the dye was completely dissolved. The flask was filled to the mark with deionized water. A working indigo solution was prepared by adding 20 mL of indigo stock solution, 10 g of sodium dihydrogen phosphate (NaH2PO4), and 7 mL of concentrated phosphoric acid to a 1 L volumetric flask. The flask was filled to the mark with deionized water. The concentration of ozone in solution was determined by adding an aliquot of ozonated solution (typically 30 μL) to 3 mL of working indigo solution in a 1 cm path-length quartz cuvette. The cuvette was capped with a piece of Parafilm® (American National Can Company, Chicago, Ill.) and inverted a few times to mix the solutions. As a blank, the same volume the equivalent non-ozonated solution was added to 3 mL of working indigo solution in a matched cuvette and mixed. […] The absorbance at 600 nm was measured to provide the difference in absorbance between the blank and the sample. […]\nwhere ΔA is the difference in absorbance between the sample and the blank, b is the path-length of the cuvette, Vw is the volume of working indigo solution, Vs is the volume of sample, and f is 0.42. f is based on a sensitivity factor of 20,000/cm for the change in absorbance at 600 nm per mole of ozone added per liter. […]\n200 mL of 81% acetic acid by volume (in DI water) water was ozonated in a glass flask. […] At the same time a liquid sample was withdrawn from the beaker and its ozone concentration measured by the method described above. […]"}, "[6]": {"conditions": "neutral aqueous solution, cited from earlier work"}, "[7]": {"assay": "Stability of ozonated ethanol solutions over 72 hours", "type": "physicochemical", "conditions": "ethanol (99 vol. %) ozonated 4 hours at 22° C.; 72-hour period", "method": "The first step was the titration of hydrogen peroxide with ceric sulfate. A small amount of the peracetic acid solution (0.25 mL) was placed in 100 mL of ice-cold 1 N H2SO4 to which was also added three drops of ferroin indicator (Aldrich Chemical Company, Milwaukee, Wis.). The faint pink colored solution was then titrated with 0.1 M Ce(SO4)2 until the colorless endpoint was reached. Because cerium(IV) has a higher oxidation potential than hydrogen peroxide, hydrogen peroxide was oxidized to protons and molecular oxygen according the stoichiometry shown in the following reaction:\n5 mL of 0.18 M KI was added to the solution and the mixture was stirred for 30 seconds. The solution was then placed in the dark for 30 minutes. After the 30-minute reaction time, the solution was yellowish brown and the color was proportional to the amount of peracetic acid originally present in the solution. The brown color was produced by oxidation of the colorless iodide anion (I^−) to the brown-colored iodine (I2) molecule by peracetic acid as shown in the following reaction: […]\nExperiments were done to determine the stability of ozonated ethanol solutions over a 72-hour period. Ethanol (99 vol. %) was ozonated for 4 hours at 22° C. and the amount of AMP and peracetic acid was measured as a function of time over the next three days. […]"}, "[8]": {"conditions": "5-second contact time, Log10 Start 4.9, Table 4"}, "[9]": {"conditions": "20-second contact time, Log10 Start 5.4, Table 3"}, "[10]": {"conditions": "20-second contact time, Log10 Start 7.4, Table 7"}, "[11]": {"conditions": "5-second contact time, Log10 Start 5.3, Table 6"}, "[12]": {"conditions": "20-second contact time, Log10 Start 4.8, Table 5"}, "[13]": {"conditions": "20-second contact time, Log10 Start 6.3, Table 8"}}, "note": "“And” between values parts separate entries of the source, which are not always exact repeats. Identical values can stand only once. Like-named read-outs stand apart in the source and are kept apart here."}
{"molecule": "CCO", "note": "[10 vol. % Ethanol in Water (control), Ethanol]", "values": [{"measurement": "Log10 Recovered", "setting": "[1]; [8]", "value": 4.3, "unit": "Log10"}, {"measurement": "Log10 Reduction", "setting": "[1]; [8]", "value": 0.6, "unit": "Log10"}, {"measurement": "Log10 Recovered", "setting": "[1]; [9]", "value": 5.2, "unit": "Log10"}, {"measurement": "Log10 Reduction", "setting": "[1]; [9]", "value": 0.2, "unit": "Log10"}, {"measurement": "Log10 Recovered", "setting": "[1]; [10]", "value": 4.5, "unit": "Log10"}, {"measurement": "Log10 Reduction", "setting": "[1]; [10]", "value": 2.9, "unit": "Log10"}, {"measurement": "Log10 Recovered", "setting": "[2]; [11]", "value": 3.3, "unit": "Log10"}, {"measurement": "Log10 Reduction", "setting": "[2]; [11]", "value": 2.0, "unit": "Log10"}, {"measurement": "Log10 Recovered", "setting": "[2]; [12]", "value": 4.3, "unit": "Log10"}, {"measurement": "Log10 Reduction", "setting": "[2]; [12]", "value": 0.5, "unit": "Log10"}, {"measurement": "Log10 Recovered", "setting": "[2]; [13]", "value": 6.4, "unit": "Log10"}, {"measurement": "Log10 Reduction", "setting": "[2]; [13]", "value": "−0.1", "unit": "Log10"}]}
{"molecule": "CCCC(=O)O", "note": "[butyric acid]", "values": [{"measurement": "published ionization constant", "setting": "[3]", "value": 4.81}]}
{"molecule": "CC(=O)O", "note": "[non-ozonated 81% acetic acid, acetic acid]", "values": [{"measurement": "log reduction in viable spores, best achieved", "setting": "[4]; Example 11", "value": "≤ 2.87", "unit": "log"}, {"measurement": "sporicidal / disinfection activity in words", "setting": "[4]; glass carriers, spores in 10% bovine serum albumin", "value": "relatively ineffective"}]}
{"molecule": "O=[O+][O-]", "note": "[ozone]", "values": [{"measurement": "initial ozone concentration at the time the spore carriers were immersed", "setting": "[5]; in 81% acetic acid ozonated 10 minutes", "value": "125 ppm and 175 ppm"}, {"measurement": "dissolved ozone concentration", "setting": "[5]; in DI water", "value": "about 30 ppm"}, {"measurement": "initial ozone concentration", "setting": "[5]; in ozonated DI water, Example 11", "value": "≤ 31", "unit": "ppm"}, {"measurement": "dissolved ozone concentration", "setting": "[5]; in pure acetic acid", "value": "greater than 400 ppm"}, {"measurement": "Ozone Concentration (solubility)", "setting": "[6]; 0° C.", "value": "35 (ppm)"}, {"measurement": "Ozone Concentration (solubility)", "setting": "[6]; 20° C.", "value": 21, "unit": "ppm"}, {"measurement": "Ozone Concentration (solubility)", "setting": "[6]; 40° C.", "value": 4, "unit": "ppm"}, {"measurement": "Ozone Concentration (solubility)", "setting": "[6]; 60° C.", "value": 0, "unit": "ppm"}]}
{"molecule": "CC(=O)OO", "note": "[peracetic acid]", "values": [{"measurement": "concentration in solution over time", "setting": "[7]", "value": "constant"}]}
{"molecule": "acetaldehyde monoperacetate [AMP]", "values": [{"measurement": "concentration in solution over time", "setting": "[7]", "value": "decreases considerably"}]}
